# From US8501713B2, “Drug combinations for the treatment of duchenne muscular dystrophy” (Summit Corporation PLC, priority 2007, dated 2013)
# System: Utrophin A promoter linked to a luciferase reporter gene
# Test: Luciferase reporter assay (murine H2K cells)
# Format: cell-based
# Details: Mus musculus, H2K mdx, luciferase level relative to control; H2K/mdx/Utro A reporter cells; compound 10 μM final concentration; read-out: Activity
# Summary of the method: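 Immortalized mdx mouse H2K myoblasts stably carrying a ~5 kb utrophin A promoter–luciferase construct, kept at 33° C, 10% CO2. After 24 hrs plating, compound added at 10 μM final for 48 hrs; luciferase light output read after in-situ lysis.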
row,SMILES,activity at 10 µM [%]
1,"CC(C)N(C)C(=O)c1ccc2oc(-c3ccc(Cl)cc3)nc2c1 [Example 278, 2-(4-chlorophenyl)-N-isopropyl-N-methylbenzo[d]oxazole-5-carboxamide]",301 to 400
2,"CNC(=O)c1ccc2oc(-c3ccc(Cl)cc3)nc2c1 [Example 279, 2-(4-chlorophenyl)-N-methylbenzo[d]oxazole-5-carboxamide]",301 to 400
3,"Nc1ccc2oc(CCc3ccccc3)nc2c1 [Example 280, 2-phenethylbenzo[d]oxazol-5-amine]",> 401
4,"CC(C)S(=O)(=O)c1ccc2oc(-c3ccc(Cl)cc3)nc2c1 [Example 281, 2-(4-chlorophenyl)-5-(isopropylsulfonyl)benzo[d]oxazole]",> 401
5,"Nc1ccc2sc(-c3ccccc3Cl)nc2c1 [Example 282, 2-(2-chlorophenyl)benzo[d]thiazol-5-amine]",> 401
6,"Nc1ccc2sc(-c3cccc(Cl)c3)nc2c1 [Example 283, 2-(3-chlorophenyl)benzo[d]thiazol-5-amine]",> 401
7,"Nc1ccc2sc(-c3ccc(Cl)c(Cl)c3)nc2c1 [Example 284, 2-(3,4-dichlorophenyl)benzo[d]thiazol-5-amine]",> 401
8,"O=C(CCN1CCOCC1)Nc1ccc2oc(-c3ccccc3)nc2c1 [Example 285, 3-morpholino-N-(2-phenylbenzo[d]oxazol-5-yl)propanamide]",< 200
9,"O=[N+]([O-])c1ccc2oc(-c3ccc4c(c3)OCO4)nc2c1 [Example 286, 2-(benzo[d][1,3]dioxol-5-yl)-5-nitrobenzo[d]oxazole]",301 to 400
10,"COC(=O)c1ccc(-c2ccc3oc(-c4ccc(Cl)cc4)nc3c2)cc1 [Example 287, methyl 4-(2-(4-chlorophenyl)benzo[d]oxazol-5-yl)benzoate]",< 200
11,"Clc1ccc(-c2nc3cc(Br)ccc3o2)cc1 [Example 288, 5-bromo-2-(4-chlorophenyl)benzo[d]oxazole]",> 401
12,"Nc1ccc(-c2nc3cc(Cl)ccc3o2)cc1 [Example 289, 4-(5-chlorobenzo[d]oxazol-2-yl)aniline]",> 401
13,"Nc1ccc(-c2nc3ccc(Cl)cc3o2)cc1 [Example 290, 4-(6-chlorobenzo[d]oxazol-2-yl)aniline]",301 to 400
14,"Clc1ccc(-c2nc3cc(-c4ccc(N5CCOCC5)cc4)ccc3o2)cc1 [Example 291, 2-(4-chlorophenyl)-5-(4-morpholinophenyl)benzo[d]oxazole]",201 to 300
15,"CCSc1cccc(-c2ccc3oc(-c4ccc(Cl)cc4)nc3c2)c1 [Example 292, 2-(4-chlorophenyl)-5-(3-(ethylthio)phenyl)benzo[d]oxazole]",201 to 300
16,"CCS(=O)(=O)c1ccc2oc(-c3cccc(Cl)c3)nc2c1 [Example 293, 2-(3-chlorophenyl)-5-(ethylsulfonyl)benzo[d]oxazole]",> 401
17,"CC(=O)Nc1ccccc1-c1ccc2oc(-c3ccc(Cl)cc3)nc2c1 [Example 294, N-(2-(2-(4-chlorophenyl)benzo[d]oxazol-5-yl)phenyl)acetamide]",< 200
18,"CC(C)C(=O)Nc1ccc2sc(-c3ccccc3Cl)nc2c1 [Example 295, N-(2-(2-chlorophenyl)benzo[d]thiazol-5-yl)isobutyramide]",> 401
19,"CC(C)C(=O)Nc1ccc2sc(-c3cccc(Cl)c3)nc2c1 [Example 296, N-(2-(3-chlorophenyl)benzo[d]thiazol-5-yl)isobutyramide]",> 401
20,"CC(C)C(=O)Nc1ccc2sc(-c3ccc(Cl)c(Cl)c3)nc2c1 [Example 297, N-(2-(3,4-dichlorophenyl)benzo[d]thiazol-5-yl)isobutyramide]",> 401
21,"CCS(=O)(=O)c1ccc2oc(-c3ccccc3Cl)nc2c1 [Example 298, 2-(2-Chlorophenyl)-5-(ethylsulfonyl)benzo[d]oxazole]",201 to 300
22,"Nc1ccc2oc(-c3ccc4c(c3)OCO4)nc2c1 [Example 299, 2-(benzo[d][1,3]dioxol-5-yl)benzo[d]oxazol-5-amine]",201 to 300
23,"CC(C)C(=O)Nc1ccc2oc(-c3ccc4c(c3)OCO4)nc2c1 [Example 300, N-(2-(benzo[d][1,3]dioxol-5-yl)benzo[d]oxazol-5-yl)isobutyramide]",301 to 400
24,"CCS(=O)(=O)c1ccc2oc(-c3ccc(Cl)c(Cl)c3)nc2c1 [Example 301, 2-(3,4-diChlorophenyl)-5-(ethylsulfonyl)benzo[d]oxazole]",201 to 300
25,"CC(C)C(=O)Nc1ccc2oc(CCc3ccccc3)nc2c1 [Example 302, N-(2-phenethylbenzo[d]oxazol-5-yl)isobutyramide]",< 200

row,SMILES,activity at 10 µM [%]
1,"CC(C)C(=O)Nc1ccc2sc(-c3cccc(Cl)c3Cl)nc2c1 [Example 303, N-(2-(2,3-dichlorophenyl)benzo[d]thiazol-5-yl)isobutyramide]",301 to 400
2,"CCS(=O)(=O)c1ccc2oc(-c3cccc(Cl)c3Cl)nc2c1 [Example 304, 2-(2,3-diChlorophenyl)-5-(ethylsulfonyl)benzo[d]oxazole]",< 200
3,"COc1ccc(-c2ccc3oc(-c4ccc(Cl)cc4)nc3c2)cn1 [Example 305, 2-(4-chlorophenyl)-5-(6-methoxypyridin-3-yl)benzo[d]oxazole]",201 to 300
4,"Nc1ccc2sc(-c3cccc(Cl)c3Cl)nc2c1 [Example 307, 2-(2,3-dichlorophenyl)benzo[d]thiazol-5-amine]",301 to 400
5,"CC(c1ccccc1)c1nc2cc(N)ccc2o1 (stereo not shown) [Example 308, 2-(1-phenylethyl)benzo[d]oxazol-5-amine]",< 200
6,"CC(C)C(=O)Nc1ccc2oc(C(C)c3ccccc3)nc2c1 (stereo not shown) [Example 309, N-(2-(1-phenylethyl)benzo[d]oxazol-5-yl)isobutyramide]",< 200
7,"Clc1ccc(-c2nc3cc4c(cc3o2)OCO4)cc1 [Example 310, 2-(4-chlorophenyl)-5,6-methylenedioxybenzoxazole]",301 to 400
8,"CC(C)C(=O)Nc1ccc2oc(-c3cc(Cl)ccc3Cl)nc2c1 [Example 311, N-(2-(2,5-dichlorophenyl)benzo[d]oxazol-5-yl)isobutyramide]",< 200
9,"O=S(=O)(O)c1ccc2oc(-c3ccc(Cl)cc3)nc2c1 [Example 312, 2-(4-chlorophenyl)benzo[d]oxazole-5-sulfonic acid]",< 200
10,"Clc1ccc(-c2nc3cc(-c4ccc(Cl)nc4)ccc3o2)cc1 [Example 314, 2-(4-chlorophenyl)-5-(6-chloropyridin-3-yl)benzo[d]oxazole]",< 200
11,"Fc1ccc(-c2ccc3oc(-c4ccc(Cl)cc4)nc3c2)cn1 [Example 315, 2-(4-chlorophenyl)-5-(6-fluoropyridin-3-yl)benzo[d]oxazole]",< 200
12,"Clc1ccc(-c2nc3cc(-c4ccc(N5CCOCC5)nc4)ccc3o2)cc1 [Example 316, 2-(4-chlorophenyl)-5-(6-morpholinopyridin-3-yl)benzo[d]oxazole]",< 200
13,"CC(=O)Nc1ccc(-c2nc3cc(Cl)ccc3o2)cc1 [Example 317, N-(4-(5-chlorobenzo[d]oxazol-2-yl)phenyl)acetamide]",301 to 400
14,"CC(C)C(=O)Nc1ccc(-c2nc3cc(Cl)ccc3o2)cc1 [Example 318, N-(4-(5-chlorobenzo[d]oxazol-2-yl)phenyl)isobutyramide]",201 to 300
15,"O=C(Nc1ccc(-c2nc3cc(Cl)ccc3o2)cc1)c1cccs1 [Example 319, N-(4-(5-chlorobenzo[d]oxazol-2-yl)phenyl)thiophene-2-carboxamide]",< 200
16,"CC(C)C(=O)N(C)c1ccc2oc(-c3ccc(Cl)cc3)nc2c1 [Example 320, N-(2-(4-chlorophenyl)benzo[d]oxazol-5-yl)-N-methylisobutyramide]",201 to 300
17,"CC(C)(C)c1ccc2oc(-c3ccc(Cl)cc3)nc2c1 [Example 321, 5-tert-butyl-2-(4-chlorophenyl)benzo[d]oxazole]",> 401
18,"CC(C)CN(C)c1ccc2oc(-c3ccc(Cl)cc3)nc2c1 [Example 322, 2-(4-chlorophenyl)-N-isobutyl-N-methylbenzo[d]oxazol-5-amine]",< 200
19,"COCCC(=O)Nc1ccc2oc(-c3ccc(Cl)cc3)nc2c1 [Example 323, N-(2-(4-chlorophenyl)benzo[d]oxazol-5-yl)-3-methoxypropanamide]",> 401
20,"O=[N+]([O-])c1ccc2nc(-c3ccc(Cl)c(Cl)c3)oc2c1 [Example 324, 2-(3,4-dichlorophenyl)-6-nitrobenzo[d]oxazole]",201 to 300
21,"NS(=O)(=O)c1ccc2oc(-c3ccc(Cl)cc3)nc2c1 [Example 325, 2-(4-chlorophenyl)benzo[d]oxazole-5-sulfonamide]",> 401
22,"O=[N+]([O-])c1cc2oc(-c3ccc(Cl)cc3)nc2cc1Cl [Example 326, 5-chloro-2-(4-chlorophenyl)-6-nitrobenzo[d]oxazole]",301 to 400
23,"COc1cccc(-c2ccc3oc(-c4ccc(Cl)cc4)nc3c2)n1 [Example 327, 2-(4-chlorophenyl)-5-(6-methoxypyridin-2-yl)benzo[d]oxazole]",< 200
24,"Nc1cccc(-c2ccc3oc(-c4ccc(Cl)cc4)nc3c2)c1 [Example 328, 3-(2-(4-chlorophenyl)benzo[d]oxazol-5-yl)aniline]",> 401
25,"Nc1ccc(-c2ccc3oc(-c4ccc(Cl)cc4)nc3c2)cc1 [Example 329, 4-(2-(4-chlorophenyl)benzo[d]oxazol-5-yl)aniline]",> 401

# Same assay, conditions: luciferase level relative to control; H2K/mdx/Utro A reporter cells; compound 10 μM final concentration
row,SMILES,Activity
1,"COc1ccc(-c2ccc3oc(-c4ccc(Cl)cc4)nc3c2)cn1 [Example 306, 2-(4-chlorophenyl)-5-(6-methoxypyridin-3-yl)benzo[d]oxazole]",+ (Up to 200% relative to control)
2,"O=C(O)c1cccc(-c2ccc3oc(-c4ccc(Cl)cc4)nc3c2)c1 [Example 313, 3-(2-(4-chlorophenyl)benzo[d]oxazol-5-yl)benzoic acidd]",+ (Up to 200% relative to control)
